{
  "source": "patent US20110230481A2",
  "about": "“DERIVATIVES OF TETRABROMOBENZIMIDAZOLE, A PROCESS FOR THE PREPARATION THEREOF, A PHARMACEUTICAL COMPOSITION COMPRISING THE SAME, A METHOD OF USING THE SAME, A METHOD FOR MODULATING OR REGULATING SERINE/THREONINE KINASES, AND SERINE/THREONINE KINASES MODULATING AGENT” (SELVITA S.A., priority 2009, published 2011)",
  "experiment_in_all_cases": "KINOMEscan Max",
  "assay_type_in_all_cases": "binding",
  "key": {"[1]": {"target": "T1, ABL1(F317I)-nonphosphorylated (Homo sapiens, UniProt P00519, F317I)", "T1 construct": "purchased Ambit (KINOMEscan Max service)", "method_in_brief": "(§1)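 Competitive displacement format with DNA-tagged human kinase and an immobilized active-site probe; detection by qPCR amplification of the kinase's DNA tag.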"}, "AMPK-alpha1": {"target": "T2, AMPK-alpha1 (Homo sapiens, UniProt Q13131)", "T2 construct": "DNA tag (qPCR label); purchased Ambit Kinomescan (contract screening)", "method_in_brief": "as §1"}, "ARK5": {"target": "T3, ARK5 (Homo sapiens, UniProt O60285)", "T3 construct": "DNA tag (qPCR label); purchased Ambit Kinomescan (contract screening)", "details": "1 μM", "method_in_brief": "as §1"}, "CHEK2": {"target": "CHEK2 (Homo sapiens, UniProt O96017)", "sequence (O96017 whole entry)": "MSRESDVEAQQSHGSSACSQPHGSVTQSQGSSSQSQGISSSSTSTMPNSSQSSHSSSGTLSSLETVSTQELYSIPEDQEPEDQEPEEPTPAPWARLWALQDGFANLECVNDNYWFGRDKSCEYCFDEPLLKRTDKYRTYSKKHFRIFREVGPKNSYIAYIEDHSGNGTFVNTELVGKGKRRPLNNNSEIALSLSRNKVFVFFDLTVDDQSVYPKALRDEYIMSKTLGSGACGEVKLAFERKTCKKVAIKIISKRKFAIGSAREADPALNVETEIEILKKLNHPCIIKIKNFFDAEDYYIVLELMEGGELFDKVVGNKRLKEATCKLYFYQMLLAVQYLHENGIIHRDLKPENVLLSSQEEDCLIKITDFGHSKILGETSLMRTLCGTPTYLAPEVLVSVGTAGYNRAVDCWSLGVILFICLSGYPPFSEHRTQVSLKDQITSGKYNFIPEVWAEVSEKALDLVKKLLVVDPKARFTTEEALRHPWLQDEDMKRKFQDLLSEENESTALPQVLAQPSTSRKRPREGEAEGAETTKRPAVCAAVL", "method_in_brief": "as §1"}, "CLK2": {"target": "T4, CLK2 (Homo sapiens, UniProt P49760)", "T4 construct": "DNA tag (qPCR read-out)", "method_in_brief": "as §1"}, "CSNK1A1": {"target": "T5, CSNK1A1 (Homo sapiens, UniProt P48729)", "T5 construct": "DNA tag (qPCR read-out)", "method_in_brief": "as §1"}, "DAPK1": {"target": "T6, DAPK1 (Homo sapiens, UniProt P53355)", "T6 construct": "DNA tag (qPCR read-out)", "method_in_brief": "as §1"}, "ERK1": {"target": "T7, ERK1 (Homo sapiens, UniProt P27361)", "T7 construct": "purchased Ambit Kinomescan (contract panel, KINOMEscan Max)", "method_in_brief": "as §1"}, "FGFR4": {"target": "T8, FGFR4 (Homo sapiens, UniProt P22455)", "T8 construct": "purchased Ambit (KINOMEscan Max service)", "T8 sequence (P22455 22-802)": "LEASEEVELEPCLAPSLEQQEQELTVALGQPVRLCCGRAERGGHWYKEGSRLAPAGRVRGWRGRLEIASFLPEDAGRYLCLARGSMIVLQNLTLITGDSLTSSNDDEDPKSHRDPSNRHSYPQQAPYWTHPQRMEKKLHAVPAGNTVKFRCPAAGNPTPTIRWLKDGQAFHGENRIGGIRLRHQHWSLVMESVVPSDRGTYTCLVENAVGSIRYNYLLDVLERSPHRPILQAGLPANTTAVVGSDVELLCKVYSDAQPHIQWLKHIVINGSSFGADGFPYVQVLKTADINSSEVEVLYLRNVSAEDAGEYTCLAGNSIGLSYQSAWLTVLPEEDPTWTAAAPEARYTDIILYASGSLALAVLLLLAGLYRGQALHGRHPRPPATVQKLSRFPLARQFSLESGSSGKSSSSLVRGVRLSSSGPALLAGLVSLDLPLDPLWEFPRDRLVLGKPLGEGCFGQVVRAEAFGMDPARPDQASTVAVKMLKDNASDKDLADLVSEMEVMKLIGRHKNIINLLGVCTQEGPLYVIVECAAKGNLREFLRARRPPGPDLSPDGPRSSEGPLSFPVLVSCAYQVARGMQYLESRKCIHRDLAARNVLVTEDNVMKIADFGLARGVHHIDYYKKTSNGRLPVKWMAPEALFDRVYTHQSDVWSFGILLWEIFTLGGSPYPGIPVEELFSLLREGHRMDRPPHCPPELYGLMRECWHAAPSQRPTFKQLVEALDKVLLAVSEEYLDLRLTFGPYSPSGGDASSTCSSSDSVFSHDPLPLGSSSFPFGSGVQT", "method_in_brief": "as §1"}, "FGR": {"target": "T9, FGR (Homo sapiens, UniProt P09769)", "T9 construct": "purchased Ambit Kinomescan (contract panel, KINOMEscan Max)", "method_in_brief": "as §1"}, "FLT3(N841I)": {"target": "T10, FLT3(N841I) (Homo sapiens, UniProt P36888, N841I)", "T10 construct": "purchased Ambit (KINOMEscan Max service)", "method_in_brief": "as §1"}, "IKK-alpha": {"target": "T11, IKK-alpha (Homo sapiens, UniProt O15111)", "T11 construct": "DNA tag (qPCR read-out); purchased Ambit Kinomescan", "method_in_brief": "as §1"}, "KIT(V559D.T670I)": {"target": "T12, KIT(V559D.T670I) (Homo sapiens, UniProt P10721, T670I/V559D)", "T12 construct": "purchased Ambit Kinomescan (contract panel)", "method_in_brief": "as §1"}, "LRRK2": {"target": "LRRK2 (Homo sapiens, UniProt Q5S007)", "method_in_brief": "as §1"}, "MAP3K4": {"target": "T13, MAP3K4 (Homo sapiens, UniProt Q9Y6R4)", "T13 construct": "purchased Ambit Kinomescan (contract panel)", "method_in_brief": "as §1"}, "MARK2": {"target": "MARK2 (Homo sapiens, UniProt Q7KZI7)", "method_in_brief": "as §1"}, "MEK5": {"target": "MEK5 (Homo sapiens, UniProt Q13163)", "method_in_brief": "as §1"}, "MET": {"target": "T14, MET (Homo sapiens, UniProt P08581)", "T14 construct": "purchased Ambit Kinomescan (contract screening)", "details": "1 μM", "method_in_brief": "as §1"}, "MTOR": {"target": "MTOR (Homo sapiens, UniProt P42345)", "method_in_brief": "as §1"}, "MYO3A": {"target": "MYO3A (Homo sapiens, UniProt Q8NEV4)", "method_in_brief": "as §1"}, "NEK7": {"target": "T15, NEK7 (Homo sapiens, UniProt Q8TDX7)", "T15 construct": "DNA tag (qPCR read-out)", "method_in_brief": "as §1"}, "PAK7": {"target": "T16, PAK7 (Homo sapiens, UniProt Q9P286)", "T16 construct": "DNA tag (qPCR read-out)", "method_in_brief": "as §1"}, "PFPK5(P.falciparum)": {"target": "T17, PFPK5(P.falciparum) (Plasmodium falciparum, UniProt P61075)", "T17 construct": "DNA tag (qPCR read-out)", "method_in_brief": "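Active-site competition binding format, not an activity assay. Tagged kinase retained on immobilized ligand is detected by quantitative PCR of its DNA label.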"}, "PIK3CA(E545K)": {"target": "PIK3CA(E545K) (Homo sapiens, UniProt P42336, E545K)", "sequence (P42336 whole entry E545K)": "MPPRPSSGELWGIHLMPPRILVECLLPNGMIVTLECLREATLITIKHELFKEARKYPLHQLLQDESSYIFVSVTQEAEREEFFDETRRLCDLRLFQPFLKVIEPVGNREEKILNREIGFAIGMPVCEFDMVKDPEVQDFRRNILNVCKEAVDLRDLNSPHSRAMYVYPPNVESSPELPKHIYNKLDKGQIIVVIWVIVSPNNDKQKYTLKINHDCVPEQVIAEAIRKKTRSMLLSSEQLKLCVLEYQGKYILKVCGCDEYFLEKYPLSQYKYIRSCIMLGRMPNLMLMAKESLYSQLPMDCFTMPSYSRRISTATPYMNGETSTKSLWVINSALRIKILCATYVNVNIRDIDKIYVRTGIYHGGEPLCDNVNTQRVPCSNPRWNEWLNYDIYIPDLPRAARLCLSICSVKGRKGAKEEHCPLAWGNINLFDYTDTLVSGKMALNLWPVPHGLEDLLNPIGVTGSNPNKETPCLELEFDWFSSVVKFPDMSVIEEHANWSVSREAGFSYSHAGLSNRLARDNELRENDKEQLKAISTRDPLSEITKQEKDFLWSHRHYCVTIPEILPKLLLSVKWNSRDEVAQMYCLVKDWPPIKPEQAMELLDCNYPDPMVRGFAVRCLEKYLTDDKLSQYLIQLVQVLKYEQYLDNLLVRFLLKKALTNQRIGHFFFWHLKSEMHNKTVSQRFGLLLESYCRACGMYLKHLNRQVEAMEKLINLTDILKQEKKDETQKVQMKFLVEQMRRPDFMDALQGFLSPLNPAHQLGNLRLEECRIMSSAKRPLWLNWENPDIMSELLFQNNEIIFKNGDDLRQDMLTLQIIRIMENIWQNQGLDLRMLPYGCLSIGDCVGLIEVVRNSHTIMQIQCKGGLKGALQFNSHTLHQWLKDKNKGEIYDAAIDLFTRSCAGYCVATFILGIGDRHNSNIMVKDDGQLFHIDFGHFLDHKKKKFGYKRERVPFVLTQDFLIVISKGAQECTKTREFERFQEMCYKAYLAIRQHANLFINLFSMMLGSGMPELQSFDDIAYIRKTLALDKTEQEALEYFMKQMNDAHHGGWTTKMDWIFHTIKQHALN", "method_in_brief": "as §1"}, "PIK3CA(Q546K)": {"target": "T18, PIK3CA(Q546K) (Homo sapiens, UniProt P42336, Q546K)", "T18 construct": "DNA tag (qPCR read-out)", "T18 sequence (P42336 whole entry Q546K)": "as the sequence (P42336 whole entry E545K) above, with K545E, Q546K counted along it", "method_in_brief": "as §1"}, "PIK3CB": {"target": "T19, PIK3CB (Homo sapiens, UniProt P42338)", "T19 construct": "DNA tag (qPCR read-out)", "method_in_brief": "as §1"}, "PRKD3": {"target": "T20, PRKD3 (Homo sapiens, UniProt O94806)", "T20 construct": "DNA tag (qPCR read-out)", "method_in_brief": "as §1"}, "RET(V804L)": {"target": "T21, RET(V804L) (Homo sapiens, UniProt P07949, V804L)", "T21 construct": "DNA tag (qPCR read-out)", "T21 sequence (P07949 29-1114 V804L)": "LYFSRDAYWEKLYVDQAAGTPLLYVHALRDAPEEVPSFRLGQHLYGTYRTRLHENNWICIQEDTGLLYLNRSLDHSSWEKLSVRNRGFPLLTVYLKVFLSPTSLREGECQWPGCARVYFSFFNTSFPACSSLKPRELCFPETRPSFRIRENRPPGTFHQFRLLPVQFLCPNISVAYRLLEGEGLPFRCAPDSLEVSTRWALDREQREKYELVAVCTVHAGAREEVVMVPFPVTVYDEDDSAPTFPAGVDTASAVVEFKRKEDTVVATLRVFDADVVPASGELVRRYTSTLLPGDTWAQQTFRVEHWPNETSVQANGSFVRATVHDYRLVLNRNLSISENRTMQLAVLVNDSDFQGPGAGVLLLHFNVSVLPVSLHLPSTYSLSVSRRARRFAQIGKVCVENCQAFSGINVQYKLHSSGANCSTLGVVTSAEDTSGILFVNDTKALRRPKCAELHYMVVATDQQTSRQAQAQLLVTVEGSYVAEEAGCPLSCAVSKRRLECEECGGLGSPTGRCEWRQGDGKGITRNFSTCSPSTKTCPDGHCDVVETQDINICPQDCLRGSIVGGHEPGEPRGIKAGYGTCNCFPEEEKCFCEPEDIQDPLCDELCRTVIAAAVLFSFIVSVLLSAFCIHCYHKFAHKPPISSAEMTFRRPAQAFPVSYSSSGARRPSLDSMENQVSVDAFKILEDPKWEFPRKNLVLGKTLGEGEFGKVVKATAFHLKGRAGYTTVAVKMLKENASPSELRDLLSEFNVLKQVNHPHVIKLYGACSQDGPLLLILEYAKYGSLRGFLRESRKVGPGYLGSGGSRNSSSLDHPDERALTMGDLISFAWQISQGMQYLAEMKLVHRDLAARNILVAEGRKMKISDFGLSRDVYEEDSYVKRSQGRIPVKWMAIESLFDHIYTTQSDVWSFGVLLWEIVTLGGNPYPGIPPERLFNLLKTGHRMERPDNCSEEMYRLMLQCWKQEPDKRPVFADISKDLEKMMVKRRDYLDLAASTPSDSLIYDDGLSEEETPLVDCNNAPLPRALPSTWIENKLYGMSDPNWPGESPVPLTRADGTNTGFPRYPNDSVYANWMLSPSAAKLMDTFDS", "method_in_brief": "as §1"}, "RIPK1": {"target": "T22, RIPK1 (Homo sapiens, UniProt Q13546)", "T22 construct": "DNA tag (qPCR read-out)", "T22 sequence (Q13546 whole entry)": "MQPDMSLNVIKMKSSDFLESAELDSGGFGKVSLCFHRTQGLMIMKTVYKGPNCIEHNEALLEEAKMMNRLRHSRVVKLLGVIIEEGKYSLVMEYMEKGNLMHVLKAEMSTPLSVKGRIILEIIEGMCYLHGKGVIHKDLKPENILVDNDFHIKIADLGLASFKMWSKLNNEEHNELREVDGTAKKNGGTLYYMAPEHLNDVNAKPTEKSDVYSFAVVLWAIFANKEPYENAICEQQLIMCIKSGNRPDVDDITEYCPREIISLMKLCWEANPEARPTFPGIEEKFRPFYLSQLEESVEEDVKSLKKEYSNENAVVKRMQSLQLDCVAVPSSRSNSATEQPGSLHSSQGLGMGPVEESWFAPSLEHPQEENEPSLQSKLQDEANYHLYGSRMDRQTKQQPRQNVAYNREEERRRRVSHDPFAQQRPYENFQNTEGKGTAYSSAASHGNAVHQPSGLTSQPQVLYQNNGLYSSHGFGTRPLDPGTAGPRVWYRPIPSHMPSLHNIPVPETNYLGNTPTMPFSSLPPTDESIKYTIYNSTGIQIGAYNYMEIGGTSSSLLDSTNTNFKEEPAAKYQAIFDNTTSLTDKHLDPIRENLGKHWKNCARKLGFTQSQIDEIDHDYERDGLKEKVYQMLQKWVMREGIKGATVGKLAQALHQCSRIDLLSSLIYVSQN", "method_in_brief": "as §1"}, "[2]": {"target": "T23, RSK3(Kin.Dom.2-C-terminal) (Homo sapiens, UniProt Q15349)", "T23 construct": "RSK3(Kin.Dom.2-C-terminal); purchased Ambit Kinomescan (contract screening)", "T23 sequence (Q15349 415-672 limits assumed)": "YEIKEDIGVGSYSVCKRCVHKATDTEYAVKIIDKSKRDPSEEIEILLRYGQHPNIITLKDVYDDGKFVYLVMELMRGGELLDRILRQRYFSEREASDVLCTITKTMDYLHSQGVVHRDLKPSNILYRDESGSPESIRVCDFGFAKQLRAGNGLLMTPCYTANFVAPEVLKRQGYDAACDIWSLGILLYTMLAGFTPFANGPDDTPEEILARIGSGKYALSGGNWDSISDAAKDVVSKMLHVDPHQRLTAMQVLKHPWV", "method_in_brief": "as §1"}, "SRPK2": {"target": "T24, SRPK2 (Homo sapiens, UniProt P78362)", "T24 construct": "DNA tag (qPCR read-out)", "method_in_brief": "as §1"}, "ULK3": {"target": "T25, ULK3 (Homo sapiens, UniProt Q6PHR2)", "T25 construct": "purchased Ambit Kinomescan (contract screening service)", "details": "1 μM", "method_in_brief": "as §1"}, "YSK4": {"target": "YSK4 (Homo sapiens, UniProt Q56UN5)", "method_in_brief": "as §1"}, "ZAP70": {"target": "T26, ZAP70 (Homo sapiens, UniProt P43403)", "T26 construct": "purchased Ambit Kinomescan (contract screening service)", "T26 sequence (P43403 whole entry)": "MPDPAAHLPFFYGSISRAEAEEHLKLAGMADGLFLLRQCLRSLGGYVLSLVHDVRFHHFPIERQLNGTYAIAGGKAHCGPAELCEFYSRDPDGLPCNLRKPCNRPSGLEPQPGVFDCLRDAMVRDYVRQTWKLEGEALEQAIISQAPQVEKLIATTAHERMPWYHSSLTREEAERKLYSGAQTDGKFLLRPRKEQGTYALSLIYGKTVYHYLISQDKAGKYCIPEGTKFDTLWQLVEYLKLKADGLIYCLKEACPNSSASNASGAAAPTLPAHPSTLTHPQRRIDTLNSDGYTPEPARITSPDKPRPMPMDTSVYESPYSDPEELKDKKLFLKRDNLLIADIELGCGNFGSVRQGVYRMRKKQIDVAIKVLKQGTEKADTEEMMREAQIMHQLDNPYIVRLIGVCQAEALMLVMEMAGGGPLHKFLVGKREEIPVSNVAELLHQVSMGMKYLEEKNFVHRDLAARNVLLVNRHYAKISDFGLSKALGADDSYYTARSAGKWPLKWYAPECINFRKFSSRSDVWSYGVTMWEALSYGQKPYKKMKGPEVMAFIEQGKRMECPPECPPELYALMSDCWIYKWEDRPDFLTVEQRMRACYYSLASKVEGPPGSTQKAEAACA", "method_in_brief": "as §1"}},
  "data": [
    {"smiles": "NCCCNc1nc2c(Br)c(Br)c(Br)c(Br)c2[nH]1", "note": "[Compound 11, N-(3-aminopropyl)-4,5,6,7-tetrabromo-1H-benzo[d]imidazol-2-amine]", "values": [
      {"measurement": "remaining binding at 1 µM", "setting": "[1]", "result": 64, "unit": "%"},
      {"measurement": "remaining binding at 1 µM", "setting": "AMPK-alpha1", "result": 100, "unit": "%"},
      {"measurement": "% binding", "setting": "ARK5", "result": 100, "unit": "%"},
      {"measurement": "remaining binding at 1 µM", "setting": "CHEK2", "result": 80, "unit": "%"},
      {"measurement": "remaining binding at 1 µM", "setting": "CLK2", "result": 31, "unit": "%"},
      {"measurement": "remaining binding at 1 µM", "setting": "CSNK1A1", "result": 35, "unit": "%"},
      {"measurement": "remaining binding at 1 µM", "setting": "DAPK1", "result": 90, "unit": "%"},
      {"measurement": "remaining binding at 1 µM", "setting": "ERK1", "result": 100, "unit": "%"},
      {"measurement": "remaining binding at 1 µM", "setting": "FGFR4", "result": 84, "unit": "%"},
      {"measurement": "remaining binding at 1 µM", "setting": "FGR", "result": 100, "unit": "%"},
      {"measurement": "remaining binding at 1 µM", "setting": "FLT3(N841I)", "result": 81, "unit": "%"},
      {"measurement": "remaining binding at 1 µM", "setting": "IKK-alpha", "result": 24, "unit": "%"},
      {"measurement": "remaining binding at 1 µM", "setting": "KIT(V559D.T670I)", "result": 100, "unit": "%"},
      {"measurement": "remaining binding at 1 µM", "setting": "LRRK2", "result": 94, "unit": "%"},
      {"measurement": "remaining binding at 1 µM", "setting": "MAP3K4", "result": 100, "unit": "%"},
      {"measurement": "remaining binding at 1 µM", "setting": "MARK2", "result": 94, "unit": "%"},
      {"measurement": "remaining binding at 1 µM", "setting": "MEK5", "result": 73, "unit": "%"},
      {"measurement": "% binding", "setting": "MET", "result": 97, "unit": "%"},
      {"measurement": "remaining binding at 1 µM", "setting": "MTOR", "result": 100, "unit": "%"},
      {"measurement": "remaining binding at 1 µM", "setting": "MYO3A", "result": 100, "unit": "%"},
      {"measurement": "remaining binding at 1 µM", "setting": "NEK7", "result": 86, "unit": "%"},
      {"measurement": "remaining binding at 1 µM", "setting": "PAK7", "result": 90, "unit": "%"},
      {"measurement": "remaining binding at 1 µM", "setting": "PFPK5(P.falciparum)", "result": 100, "unit": "%"},
      {"measurement": "remaining binding at 1 µM", "setting": "PIK3CA(E545K)", "result": 92, "unit": "%"},
      {"measurement": "remaining binding at 1 µM", "setting": "PIK3CA(Q546K)", "result": 100, "unit": "%"},
      {"measurement": "remaining binding at 1 µM", "setting": "PIK3CB", "result": 100, "unit": "%"},
      {"measurement": "remaining binding at 1 µM", "setting": "PRKD3", "result": 27, "unit": "%"},
      {"measurement": "remaining binding at 1 µM", "setting": "RET(V804L)", "result": 100, "unit": "%"},
      {"measurement": "remaining binding at 1 µM", "setting": "RIPK1", "result": 100, "unit": "%"},
      {"measurement": "remaining binding at 1 µM", "setting": "[2]", "result": 97, "unit": "%"},
      {"measurement": "remaining binding at 1 µM", "setting": "SRPK2", "result": 100, "unit": "%"},
      {"measurement": "% binding", "setting": "ULK3", "result": 100, "unit": "%"},
      {"measurement": "remaining binding at 1 µM", "setting": "YSK4", "result": 95, "unit": "%"},
      {"measurement": "remaining binding at 1 µM", "setting": "ZAP70", "result": 100, "unit": "%"}
    ]}
  ]
}
